According to PMC3914206:

How the values were obtained:
[1] = target: T1, panel of 442 kinases (Homo sapiens, UniProt P29323); type: binding; conditions: Compound Concentration 10 µM
T1 construct: purchased KINOMEscan
T1 sequence (P29323 19-1055): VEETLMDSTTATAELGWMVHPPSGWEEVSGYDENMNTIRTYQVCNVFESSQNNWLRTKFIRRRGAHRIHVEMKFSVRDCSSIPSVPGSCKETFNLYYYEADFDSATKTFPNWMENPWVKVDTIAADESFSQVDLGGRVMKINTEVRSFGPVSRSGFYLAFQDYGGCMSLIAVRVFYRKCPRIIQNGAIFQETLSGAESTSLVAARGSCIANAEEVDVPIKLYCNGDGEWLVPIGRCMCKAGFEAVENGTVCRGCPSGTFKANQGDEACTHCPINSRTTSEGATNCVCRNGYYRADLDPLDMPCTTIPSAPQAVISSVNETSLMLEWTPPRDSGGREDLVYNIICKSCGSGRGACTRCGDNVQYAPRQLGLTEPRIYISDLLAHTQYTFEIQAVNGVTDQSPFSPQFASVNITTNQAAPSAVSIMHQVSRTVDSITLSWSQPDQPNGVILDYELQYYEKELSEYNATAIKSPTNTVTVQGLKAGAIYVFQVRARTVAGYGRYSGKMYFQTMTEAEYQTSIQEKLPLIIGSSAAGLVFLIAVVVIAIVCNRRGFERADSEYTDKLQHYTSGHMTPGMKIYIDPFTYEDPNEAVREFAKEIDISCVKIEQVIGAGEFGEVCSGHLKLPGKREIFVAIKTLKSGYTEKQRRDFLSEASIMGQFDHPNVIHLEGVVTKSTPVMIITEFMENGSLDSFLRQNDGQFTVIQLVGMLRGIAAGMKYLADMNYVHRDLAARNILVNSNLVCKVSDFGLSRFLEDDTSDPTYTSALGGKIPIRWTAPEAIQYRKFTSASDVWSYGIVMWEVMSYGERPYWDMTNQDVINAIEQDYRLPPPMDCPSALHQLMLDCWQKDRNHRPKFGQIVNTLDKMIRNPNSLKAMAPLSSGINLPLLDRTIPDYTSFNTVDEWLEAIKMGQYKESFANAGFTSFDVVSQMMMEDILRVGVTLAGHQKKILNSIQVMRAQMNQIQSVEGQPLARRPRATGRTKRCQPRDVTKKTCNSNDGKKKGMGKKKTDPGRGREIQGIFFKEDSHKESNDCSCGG
From the text: (§1) We assessed the selectivity of members of this scaffold using the KINOMEscan methodology across a near comprehensive panel of 442 kinases [[18,27]].

[2] = target: T2, panel of 442 kinases (Homo sapiens, UniProt Q07002); type: binding; conditions: Compound Concentration 10 µM
T2 construct: purchased KINOMEscan
From the text: as §1

T2 sequence (Q07002 whole entry): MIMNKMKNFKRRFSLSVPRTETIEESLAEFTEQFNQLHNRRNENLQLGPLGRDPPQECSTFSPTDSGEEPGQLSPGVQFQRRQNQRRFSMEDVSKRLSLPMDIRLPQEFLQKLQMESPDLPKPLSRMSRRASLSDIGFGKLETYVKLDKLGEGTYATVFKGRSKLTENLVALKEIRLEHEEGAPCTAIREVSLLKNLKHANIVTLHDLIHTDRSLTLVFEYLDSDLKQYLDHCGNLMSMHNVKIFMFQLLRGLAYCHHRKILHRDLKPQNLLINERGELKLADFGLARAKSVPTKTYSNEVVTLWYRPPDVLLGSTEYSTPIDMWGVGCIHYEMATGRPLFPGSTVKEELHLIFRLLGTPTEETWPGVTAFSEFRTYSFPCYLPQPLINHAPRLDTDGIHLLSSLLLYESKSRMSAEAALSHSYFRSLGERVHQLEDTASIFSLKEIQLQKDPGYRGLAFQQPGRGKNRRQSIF

Compound | KINOMEscan: EPHB2 [1] | KINOMEscan: PCTK3 [2]
COc1cc(C(=O)N2CCC(N3CCN(C)CC3)CC2)ccc1Nc1ncc2c(n1)N(C)c1ccccc1C(=O)N2C [15 (LRRK2-IN-1)] | 100 | 100
COc1cc(C(=O)N2CCC(N3CCN(C)CC3)CC2)ccc1Nc1ncc2c(n1)N(C1CCCC1)c1ccccc1C(=O)N2C [Compound 25, 11-cyclopentyl-2-((2-methoxy-4-(4-(4-methylpiperazin-1-yl)piperidine-1-carbonyl)phenyl)amino)-5-methyl-5H-benzo[e]pyrimido[5,4-b][1,4]diazepin-6(11H)-one] | 86 | 100
CCOc1cc(C(=O)N2CCC(N3CCN(C)CC3)CC2)ccc1Nc1ncc2c(n1)N(C1CCCC1)c1ccccc1C(=O)N2C [Compound 26] | 100 | 100
